Entries after “also recorded” stand apart in the source; their conditions may differ.
Key:
[1] = test system: platelet mitochondria cytochrome oxidase (COX); test: Platelet mitochondria COX activity referenced to CS activity (COX/CS) in Alzheimer's disease subjects, single-blind pilot clinical study; format: in vivo, human; settings: for COX/CS Visit 2 (Mean + SEM): after two weeks of S-equol 10 mg twice a day
Method: (§1) Alzheimer's disease subjects were recruited through the University of Kansas Alzheimer's Disease Center (ADC). The ADC maintains a clinical cohort whose routine characterizations include Clinical Dementia Rating (CDR) scale ratings, uniform data set (UDS) cognitive testing, and APOE genotyping. The diagnosis of clinic cohort participants is primarily based on CDR and UDS data, and is determined through a consensus conference that includes subspecialty-trained cognitive neurologists and an expert neuropsychologist. Subjects diagnosed with Alzheimer's disease further meet current criteria for that diagnosis in McKhann et al., Alzheimers Dement, 7 (2011) 263-269.
(§2) To qualify for the study, participants had to be female with very mild (CDR 0.5) or mild (CDR 1) Alzheimer's disease. Each participant was required to have a study partner. As part of the informed consent process, the subjects and study partners were told that during different parts of the study the participants would receive either an S-equol capsule or an inert placebo. The placebo could not be distinguished from the S-equol by sight, touch, or taste so although the investigators knew whether participants at any given point were receiving S-equol or placebo, the participants themselves were blind to the actual treatment. The S-equol and placebo capsule were provided by Ausio Pharmaceuticals, LLC (Cincinnati, Ohio).
(§3) Subjects received a two week supply of medication, which uniformly consisted of placebo, and were instructed to take the study medication twice a day. At the end of this initial two-week period participants returned to the ADC clinical trials unit for their first study visit (visit 1; lead-in evaluation). Visit 1 procedures included an assessment of study medication compliance, vital signs, a query for perceived side effects, the Montreal Cognitive Assessment (MoCA), and a 40 ml phlebotomy; the blood was used to measure platelet mitochondria cytochrome oxidase (COX) and citrate synthase (CS) activities. At the completion of this visit the next two weeks of study medication was dispensed, which uniformly consisted of 10 mg S-equol capsule.
(§4) At the end of this second two-week period participants returned to the ADC clinical trials unit for their second study visit (visit 2; active treatment evaluation). The same procedures were performed during the lead-in evaluation and dispensed the next two weeks of study medication, which at this point uniformly consisted of placebo.
(§5) At the end of this final two-week period the participants returned to the ADC clinical trials unit for their third study visit (visit 3; wash-out evaluation). The lead-in and active treatment evaluation procedures were performed again, which completed participation in this single-blind study.
Forty milliliter blood samples were collected in tubes containing acid-citrate-dextrose (ACD) tubes as an anticoagulant, and maintained at room temperature. Within 24 hours of phlebotomy the blood was processed by the ADC Mitochondrial Genomics and Metabolism Core. To initiate the processing procedure, platelets were isolated by centrifugation and enriched mitochondrial fractions prepared using previously described methods. Such procedures involved nitrogen cavitation to rupture platelets followed by centrifugation to collect mitochondria.
The protein concentrations of the enriched mitochondrial fractions were measured using a BCA protein assay kit (BioRad, Hercules, Calif.). COX Vmax activity was determined as a pseudo first order-rate constant (sec−1/mg) by measuring the oxidation of reduced cytochrome c at 550 nm.
In addition to measuring COX activity, each sample's citrate synthase (CS) Vmax activity (nmol/min/mg) was measured. This assay was performed spectrophotometrically by following the formation of 5-thio-2-nitrobenzoate (412 nm) following the addition of 100 μM oxaloacetate at 30° C. […]

cytochrome oxidase (COX) = settings: brains from ovariectomized mice; cited from earlier work
rat hippocampal neurons = settings: cited from earlier work
[2] = Safety analysis of S-equol 10 mg twice per day in Alzheimer's disease subjects; format: in vivo, human; settings: 10 mg twice per day for two weeks, Alzheimer's disease patients
Method: as §3, §4
At the end of this final two-week period the participants returned to the ADC clinical trials unit for their third study visit (visit 3; wash-out evaluation). The lead-in and active treatment evaluation procedures were performed again, which completed participation in this single-blind study. […]

[3] = Montreal Cognitive Assessment (MoCA) in Alzheimer's disease subjects, single-blind pilot clinical study; format: in vivo, human; settings: for MoCA Visit 2 (Mean + SEM): visit 2 = after two weeks of S-equol 10 mg twice a day; for percent MoCA score change between visit 1 and visit 2 (trend): FIG. 1
Method: as §1, §2, §3, §4, §5
Secondary outcomes included a safety analysis of the S-equol 10 mg twice per day dose and an analysis of MoCA scores.
In addition to summarizing MoCA scores by means and standard errors, the percent change between visit 1 and visit 2 scores, as well as the percent change between visit 1 and visit 3 scores, was calculated for each participant.

SMILES: Oc1ccc([C@H]2COc3cc(O)ccc3C2)cc1 [S-equol]
- COX/CS Visit 2 (Mean + SEM) ([1]; APOE4 Carriers, 8 participants): 4.3E−05 ± 3.5E−06
- COX/CS Visit 2 (Mean + SEM) ([1]; APOE4 non-Carriers, Outlier Excluded, 6 participants): 4.7E−05 ± 7.1E−06
- COX/CS Visit 2 (Mean + SEM) ([1]; APOE4 non-Carriers, Outlier Included, 7 participants): 9.2E−05 ± 4.6E−05
- percent COX/CS change between visit 1 and visit 2 (trend), non-APOE4 carriers versus APOE4 carriers ([1]; FIGS. 3(A) and 3(B)): trended higher
- difference in mean COX/CS values between visits, or between APOE4 carriers and non-carriers ([1]; Table 3): No significant differences
- COX/CS Visit 2 (Mean + SEM) ([1]; Total, Outlier Excluded, 14 participants): 4.5E−05 ± 3.5E−06
- COX/CS Visit 2 (Mean + SEM) ([1]; Total, Outlier Included, 15 participants): 6.6E−05 ± 2.2E−05
- participants with a positive COX/CS response pattern (responders) ([1]; slope visit 1 to 2 greater than slope visit 2 to 3, COX activity referenced to CS activity): 11 of the 15
- cytochrome oxidase (COX) activity and COX1 protein levels (cytochrome oxidase (COX)): increase
- respiratory and maximal glycolysis fluxes (rat hippocampal neurons): increase
- adverse events [2]: No treatment-related adverse events; also recorded: No adverse events occurred
- MoCA Visit 2 (Mean + SEM) ([3]; APOE4 Carriers, 8 participants): 15.8 ± 2.5
- percent MoCA score change between visit 1 and visit 2 (trend) ([3]; APOE4 carriers): trended in a downward direction
- MoCA Visit 2 (Mean + SEM) ([3]; APOE4 non-Carriers, 7 participants): 13.3 ± 2.1
- percent MoCA score change between visit 1 and visit 2 (trend) ([3]; APOE4 non-carriers): upward direction
- difference in mean MoCA scores between visits, or between APOE4 carriers and non-carriers ([3]; Table 2): No significant differences
- MoCA Visit 2 (Mean + SEM) ([3]; Total, 15 participants): 14.6 ± 6.6

Reference: US20210283097A1, “METHODS OF DIAGNOSING AND TREATING ALZHEIMER'S DISEASE WITH S-EQUOL” (Ausio Pharmaceuticals, LLC, priority 2016, published 2021)
